Results as given in patent US9624211B2, “Anti-cancer compounds” (Board of Regents, The University of Texas System, priority 2013, dated 2017).

Key:
prostate cancer cells [1] = experiment: Cell apoptosis assay (Annexin-V, flow cytometry); format: cell-based
Procedure: Prostate cancer cells were treated with vehicle (DMSO) or Skp2 inhibitor for 3 days, and collected and labeled with Annexin-V-FITC, followed by flow cytometry analysis. The Annexin-V+ and […] cells indicates apoptotic cell population (Q4).

[2] = tested on: EGF-mediated Akt phosphorylation and activation; experiment: EGF-mediated Akt phosphorylation, immunoblotting; format: cell-based; settings: various cancer cell lines
Source text: (§1) Cells were lysed with RIPA buffer in the presence of protease inhibitor cocktail (Roche). The following antibodies were used for immunoblotting analysis: anti-Skp2 (Invitrogen), anti-Xpress (Invitrogen), anti-p27 (BD transduction laboratories), anti-p21 (Santa Cruz), anti-β-actin (Sigma), anti-α-tubulin (Sigma), anti-phospho-Akt (Thr308) (Cell Signaling), anti-phospho-Akt (Ser473) (Cell Signaling), and anti-HA (Convance). For immunohistochemistry, tissues were fixed in 10% formalin and embedded in paraffin in accordance with standard procedures. Sections were stained with anti-Skp2 (Invitrogen), anti-p27 (Epitomics), anti-phosphoAkt (SerS473) (Cell signaling), anti-Glut1 (Abcam), and anti-Ki67 (Abcam). TUNEL staining was performed by using in situ cell death detection kit-POD (Roche).

PC3 cells = experiment: Cell cycle by PI staining and flow cytometry; format: cell-based, human; settings: PC3 cells treated for 2 days
Procedure: FIGS. 12A-D. Skp2 inhibitor triggers cell growth suppression and cell cycle arrest at G2/M phase, related to FIG. 4. (FIG. 12A) The impact of Skp2 inhibitor on growth suppression in various cell lines. A panel of cancer cell lines were treated with various doses of Skp2 inhibitor (#25) for 4 days, and viable cell numbers were counted using hemocytometer. Growth inhibition (IC50) by compound #25 was derived from the cell counting using hemocytometer. (FIG. 12B) PC3 cells were treated with or without compound #25 for 2 days and cell cycle were determined by PI staining, followed by flow cytometry analysis. G1 phase=61.3±0.3%, S phase=15.6±0.6% and G2/M phase=20.3±0.3% in DMSO-treated PC3 cells while G1 phase=50.1±0.9%, S phase=13.3±0.8% and G2/M phase=24.5±0.3% in #25-treated PC3 cells. (FIG. 12C) Control- or Skp2-knockdown PC3 cells were treated with or without compound #25 for 2 days and cell cycle were determined by PI staining, followed by flow cytometry analysis. Two clones of Skp2 shRNA were used in this assay. G1 phase=53.1±0.8% and S phase=15.9±0.9% and G2/M phase=26.1±0.6% in control-knockdown PC3 cells, G1 phase=49.5±0.4%, S phase=13.6±0.7% and G2/M phase=29.1±0.5% in one clone of Skp2-silenced PC3 cells, G1 phase=54.5±1.6%, S phase=10.6±0.4% and G2/M phase=28.8±0.2% in another clone of Skp2-silenced PC3 cells. (FIG. 12D) WT or Skp2−/− MEFs were treated with or without compound #25 for 2 days, and cell cycle was determined by PI staining, followed by flow cytometry analysis. G1 phase=50.5±4.6%, S phase=9.1±0.6% and G2/M phase=27.8±0.9% in WT MEFs while G1 phase=27.7±1.3%, S phase=8.2±1.9% and G2/M phase=39.0±1.6% in Skp2−/− MEFs. Results are presented as mean values ±S.D. * indicates p<0.05, ** indicates p<0.01. Results from treatment groups were compared to vehicle-treated group.

U2OS (osteocarcinoma) = experiment: Cell survival assay, U2OS; format: cell-based, human
Procedure: (§2) For Skp2 inhibitor administration, 5-10×10^3 of cells with were seeded in 12 wells in triplicate, 24 h later, treated with compound #25 (refreshed every two days). Four days later, cells were harvested, stained with trypan blue, and viable cells were counted directly under the microscope using hemocytometer. For doxorubicin treatment, 8×10^3 of PC3 cells with were seeded in 12 wells in triplicate, 24 h later, treated with various dose of compound #25 in the presence or absence of 10 nM doxorubicin or 25 ng/ml cyclophosphamide for four and three days, respectively (refreshed every two days). After treatment, cells were harvested, stained with trypan blue, and viable cells were counted directly under the microscope using hemocytometer. Cellular senescence was determined by assessing SA-b-gal activity using senescence detection kit according to manufacturers' standard procedures (Calbiochem).

Skp2 protein expression = experiment: Skp2 protein expression, immunoblotting; format: cell-based; settings: higher dosage (20 μM)
Source text: as §1

[3] = target: T1, Skp2-mediated Akt ubiquitination (Homo sapiens, UniProt Q13309); experiment: In vivo Akt ubiquitination assay; format: cell-based; settings: FIG. 1G
T1 construct: expressed in transfected cells; host or cells: 293T
T1 sequence (Q13309 whole entry): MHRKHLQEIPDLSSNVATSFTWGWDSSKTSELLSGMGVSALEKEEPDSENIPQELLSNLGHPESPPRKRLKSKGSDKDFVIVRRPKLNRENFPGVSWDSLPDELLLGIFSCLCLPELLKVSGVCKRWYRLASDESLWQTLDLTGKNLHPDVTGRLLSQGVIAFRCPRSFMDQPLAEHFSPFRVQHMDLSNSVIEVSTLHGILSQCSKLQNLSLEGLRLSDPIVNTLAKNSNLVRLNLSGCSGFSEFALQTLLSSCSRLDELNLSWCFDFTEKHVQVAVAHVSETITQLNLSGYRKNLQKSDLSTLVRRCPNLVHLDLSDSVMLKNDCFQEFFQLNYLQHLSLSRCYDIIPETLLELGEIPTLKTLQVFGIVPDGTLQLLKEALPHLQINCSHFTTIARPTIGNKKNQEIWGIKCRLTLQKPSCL
Procedure: In vivo and in vitro ubiquitination assays were performed as described with modification (Lin et al., 2009; Yang et al., 2009). For in vitro ubiquitination assay, recombinant GST-Akt proteins were expressed, purified and eluted from the bacterial lysates of BL21 competent cells. Flag-Skp2 SCF complex were expressed in 293T cells, immunoprecipitated by anti-Flag antibody, and eluted from Protein A/G beads using Flag peptides according to manufacturers' standard procedures. Purified GST-Akt and Flag-SCF proteins were incubated for 3 h at 37° C. in the absence and presence of Skp2 inhibitor. After incubation, protein mixtures were diluted in E1A Buffer and the supernatant fluid was precleared with Protein A/G beads for 1 h, and immunoprecipitated overnight with anti-Flag antibody, after which Protein A/G beads were added for an additional 1 h. Beads were washed 4 times with E1A Buffer. Proteins were eluted in SDS-sample buffer and subjected to immunoblotting analysis. For in vivo ubiquitination assay, 293T cells were transfected with the indicated plasmids and cultured in the absence or presence of Skp2 inhibitor for 48 h. 6 h before harvest, cells were cultured in the presence of MG132. After cell harvest, cells were lysed by the denatured buffer (6M guanidine-HCl, 0.1M Na2HPO4/NaH2PO4, 10 mM imidazole). […]

prostate cancer cells [4] = experiment: Cell survival assay in combination with Dox or CPA; format: cell-based; settings: combination with doxorubicin or cyclophosphamide
Procedure: as §2

Compound: CCc1cc2c(=O)c(-c3nc4ccccc4s3)coc2c(CN2CCCCC2)c1O [compound #25, 3-(1,3-benzothiazol-2-yl)-6-ethyl-7-hydroxy-8-(1-piperidinylmethyl)-4H-chromen-4-one]
- cell apoptosis (prostate cancer cells [1]): elicited cell apoptosis
- EGF-mediated Akt phosphorylation and activation [2]: profoundly inhibited
- G1 phase (PC3 cells): 50.1±0.9%
- G2/M phase (PC3 cells): 24.5±0.3%
- S phase (PC3 cells): 13.3±0.8%
- cell viability (U2OS (osteocarcinoma)): potent suppressive effect on viability
- Skp2 protein expression (Skp2 protein expression): downregulated Skp2 protein expression
- Skp2-mediated Akt ubiquitination in cells [3]: inhibited Skp2-mediated Akt ubiquitination
- sensitization to Dox and CPA (prostate cancer cells [4]): increased the efficacy of Dox and CPA
